In paper PMC4941353, “Interaction of antihistaminic drugs with human translationally controlled tumor protein (TCTP) as novel approach for differentiation therapy” (Oncotarget, 2016):

How the values were obtained:
[1] = target: T1, translationally controlled tumor protein (TCTP) (Homo sapiens, UniProt P13693); assay: microscale thermophoresis with amine-labeled (BLUE-NHS) purified TCTP, buffer with […] chloroform; format: binding
T1 construct: gene TPT1; recombinant human TCTP (172 amino acids), codon-optimized, expressed in E. coli, intein tag cleaved on column
T1 sequence (P13693 1-172): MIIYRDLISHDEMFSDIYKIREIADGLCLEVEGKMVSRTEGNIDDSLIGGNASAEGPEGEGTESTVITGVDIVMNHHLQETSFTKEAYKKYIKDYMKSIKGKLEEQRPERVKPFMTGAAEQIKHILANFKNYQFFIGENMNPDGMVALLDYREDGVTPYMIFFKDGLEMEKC

[2] = target: T1, translationally controlled tumor protein (TCTP); assay: microscale thermophoresis with amine-labeled (BLUE-NHS) purified TCTP; format: binding

Row | Structure (SMILES) | Kd [1] | Kd [2]
1 | CC(C)(C)c1ccc(CN2CCN(C(c3ccccc3)c3ccc(Cl)cc3)CC2)cc1 (centres unmarked) [buclizine] | 433 ± 47.1 µM | 
2 | COc1ccc2c(c1)N(C[C@H](C)CN(C)C)c1ccccc1S2 [levomepromazine] |  | 57.2 ± 6.49 µM
